Assays:
MCF7 = test: In vitro primary anticancer activity was determined in MCF-7 cell line (breast) at the concentration of […]; assay type: functional, Homo sapiens
NCI-H460 = test: In vitro primary anticancer activity was determined in NCI-H460 cell line (Lung) at the concentration of […]; assay type: functional, Homo sapiens
SF-268 = test: In vitro primary anticancer activity was determined in SF-268 cell line (CNS) at the concentration of […]; assay type: functional, Homo sapiens
NCI-H226 = test: Anticancer activity against one non-small cell lung cancer (NCI-H226 cell line); assay type: functional; settings: Homo sapiens, read-out: LC50 (the source's name)
UACC-62 = test: Anticancer activity against one melanoma cancer (UACC-62 cell line); assay type: functional; settings: Homo sapiens, read-out: LC50 (the source's name)
A498 = test: Anticancer activity against one renal cancer (A498 cell line); assay type: functional; settings: Homo sapiens, read-out: LC50 (the source's name)
PC-6 = test: In vitro cytotoxicity was evaluated in PC6 cell line; assay type: functional, cell-based; settings: Homo sapiens

Structure (SMILES): COc1cc2c(cc1OCCCC(=O)Nc1cc3c4ccccc4ccc3c3ccccc13)N=C[C@@H]1CCCN1C2=O
- Growth (MCF7): 56%
- Growth (NCI-H460): 105%
- Growth (SF-268): 121%

Structure (SMILES): COc1cc2c(cc1OCCCCC(=O)Nc1cc3c4ccccc4ccc3c3ccccc13)N=C[C@@H]1CCCN1C2=O
- CC50 (NCI-H226): 4.5 µM
- Growth (MCF7): 1%
- CC50 (UACC-62): 4.07 µM
- CC50 (A498): 6.29 µM
- Growth (NCI-H460): 0%
- Growth (SF-268): 12%

Structure (SMILES): COc1cc2c(cc1O)N=C[C@@H]1CCCN1C2=O
- IC50 (PC-6): 0.33 µM

Source: ChEMBL document CHEMBL1136281, “Design and synthesis of novel chrysene-linked pyrrolo[2,1-c][1,4]-benzodiazepine hybrids as potential DNA-binding agents” (Bioorg Med Chem Lett, 2003)
